Drawing on patent US9656971B2, “COMT inhibitors” (Hoffmann-La Roche Inc., priority 2012, dated 2017), this text covers IC50 for 32 compounds.

Read-outs that look alike come from different tables or passages of the source.

The assay addresses T1, Rec. human COMT (Homo sapiens, UniProt P21964).
T1 sequence (P21964 1-271): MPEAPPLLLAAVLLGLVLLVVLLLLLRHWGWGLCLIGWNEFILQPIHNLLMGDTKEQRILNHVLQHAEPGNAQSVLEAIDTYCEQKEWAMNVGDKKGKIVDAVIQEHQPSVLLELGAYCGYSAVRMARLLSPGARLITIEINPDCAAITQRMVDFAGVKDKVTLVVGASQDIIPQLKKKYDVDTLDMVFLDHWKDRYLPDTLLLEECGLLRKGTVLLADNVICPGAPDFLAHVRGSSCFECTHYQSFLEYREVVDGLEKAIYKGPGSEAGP
In words: COMT-Fluorescence Assay. The format is biochemical. Conditions: rec. human COMT 25 nM, 4-Nitrocatechol-Alexa488 200 nM, SAM 500 nM. As to the method:
This intramolecular interaction is disturbed if the 4-Nitrocatechol is methylated. […] This increase of fluorescence intensity can be followed in a kinetic measurement. The slope in the linear range of the kinetic is calculated. An inhibitor compound decreases the slope.
Signal [rfu/min]=(rfu(end-point)−rfu(startpoint))/incubation_time_#2

[1] abbreviates: COMT-fluorescence assay, read-out: IC50.

Turning to `CN1CCN(CCOCc2ccccc2-c2cc(O)c3nc[nH]c(=O)c3c2)CC1` [Example 240, 8-Hydroxy-6-(2-((2-(4-methylpiperazin-1-yl)ethoxy)methyl)phenyl)quinazolin-4(3H)-one], the IC50 (commonly the concentration needed to halve the response being measured) under setting [1] turned out to be 30 nM.

As for `COCCn1cc(-c2cc(O)c3nc[nH]c(=O)c3c2)cn1` [Example 47, 8-Hydroxy-6-(1-(2-methoxyethyl)-1H-pyrazol-4-yl)quinazolin-4(3H)-one], the IC50 under setting [1] stood at 60 nM.

`CN1CCN(C(=O)c2ccccc2-c2cc(O)c3nc[nH]c(=O)c3c2)CC1` [Example 193, 8-Hydroxy-6-[2-(4-methyl-piperazine-1-carbonyl)-phenyl]-3H-quinazolin-4-one]: the IC50 under setting [1] was 1280 nM.

`CC(C)Cc1cc(O)c2nc[nH]c(=O)c2c1` [Example 17, 8-Hydroxy-6-isobutylquinazolin-4(3H)-one]: the IC50 under setting [1] turned out to be 1100 nM.

Turning to `Cc1ccccc1-c1cc(O)c2nc[nH]c(=O)c2c1` [Example 210, 8-Hydroxy-6-o-tolylquinazolin-4(3H)-one], under setting [1], the IC50 is 30 nM.

`COc1ccccc1Cc1cc(O)c2nc[nH]c(=O)c2c1` [Example 14, 8-Hydroxy-6-(2-methoxybenzyl)quinazolin-4(3H)-one]: the IC50 under setting [1] came out at 4900 nM.

Turning to `Cc1cscc1-c1cc(O)c2nc[nH]c(=O)c2c1` [Example 164, 8-Hydroxy-6-(4-methylthiophen-3-yl)quinazolin-4(3H)-one], the IC50 under setting [1] worked out at 20 nM.

For the compound `COCc1c(C(=O)N2CCN(C)CC2)cccc1-c1cc(O)c2nc[nH]c(=O)c2c1` [Example 235, 8-Hydroxy-6-[2-methoxymethyl-3-(4-methyl-piperazine-1-carbonyl)-phenyl]-3H-quinazolin-4-one], the IC50 under setting [1] turned out to be 30 nM.

`O=c1[nH]cnc2c(O)cc(-c3ccc4c(c3)CNCC4)cc12` [Example 174, 8-Hydroxy-6-(1,2,3,4-tetrahydroisoquinolin-7-yl)quinazolin-4(3H)-one] yielded an IC50 (IC50, COMT-fluorescence assay) of 70 nM.

On to `O=c1[nH]cnc2c(O)cc(-c3ccc(N4CCOCC4)cc3)cc12` [Example 142, 8-Hydroxy-6-(4-morpholin-4-yl-phenyl)-3H-quinazolin-4-one], for which the IC50 (IC50, COMT-fluorescence assay) is 10 nM.

Regarding `O=c1[nH]cnc2c(O)cc(Br)c([N+](=O)[O-])c12` [Example 44, 6-Bromo-8-hydroxy-5-nitro-3H-quinazolin-4-one], the IC50 under setting [1] amounted to 110 nM.

Take `O=c1[nH]cnc2c(O)cc(-c3ccccc3Cl)cc12` [Example 132, 6-(2-Chlorophenyl)-8-hydroxyquinazolin-4(3H)-one]: the half-maximal inhibitory concentration (IC50) (IC50, COMT-fluorescence assay) stood at 20 nM.

As to `COCCn1nccc1-c1cc(O)c2nc[nH]c(=O)c2c1` [Example 45, 8-Hydroxy-6-(1-(2-methoxyethyl)-1H-pyrazol-5-yl)quinazolin-4(3H)-one], the concentration for half-maximal inhibition (IC50) under setting [1] came out at 30 nM.

For the setting “IC50, COMT-fluorescence assay”, `O=c1[nH]cnc2c(O)cc(-c3cccc(Cl)c3)cc12` [Example 149, 6-(3-Chloro-phenyl)-8-hydroxy-3H-quinazolin-4-one] yielded a half-maximal inhibitory concentration (IC50) of 10 nM.

For `COCc1cc(C(=O)N2CCN(C)CC2)ccc1-c1cc(O)c2nc[nH]c(=O)c2c1` [Example 231, 8-Hydroxy-6-[2-methoxymethyl-4-(4-methyl-piperazine-1-carbonyl)-phenyl]-3H-quinazolin-4-one; compound with formic acid], the IC50 under setting [1] amounted to 10 nM.

For the compound `Cn1ncc2c(-c3cc(O)c4nc[nH]c(=O)c4c3)cccc21` [Example 156, 8-Hydroxy-6-(1-methyl-1H-indazol-4-yl)quinazolin-4(3H)-one], the IC50 under setting [1] was found to be 10 nM.

Take `O=c1[nH]cnc2c(O)cc(-c3ccccc3CCCCN3CCCC3)cc12` [Example 248, 8-Hydroxy-6-(2-(4-(pyrrolidin-1-yl)butyl)phenyl)quinazolin-4(3H)-one]: the IC50 under setting [1] stood at 100 nM.

With `Cc1cc(-c2cc(O)c3nc[nH]c(=O)c3c2)c(C)s1` [Example 165, 6-(2,5-Dimethylthiophen-3-yl)-8-hydroxyquinazolin-4(3H)-one], the IC50 under setting [1] is 30 nM.

In the case of `CC(C)(O)c1ccccc1-c1cc(O)c2nc[nH]c(=O)c2c1` [Example 113, 8-Hydroxy-6-(2-(2-hydroxypropan-2-yl)phenyl)quinazolin-4(3H)-one], under setting [1], the IC50 was 3600 nM.

With `CN(C)CCNC(=O)c1ccc(-c2cc(O)c3nc[nH]c(=O)c3c2)cc1` [Example 173, N-(2-(Dimethylamino)ethyl)-4-(8-hydroxy-4-oxo-3,4-dihydroquinazolin-6-yl)benzamide], under setting [1], the IC50 was 50 nM.

Regarding `O=c1[nH]cnc2c(O)cc(-c3ccc(-n4cccn4)cc3)cc12` [Example 141, 8-Hydroxy-6-(4-pyrazol-1-yl-phenyl)-3H-quinazolin-4-one], the midpoint of inhibition (IC50, COMT-fluorescence assay), the IC50, lay at 10 nM.

For the compound `O=c1[nH]cnc2c(O)cc(N3CCOCC3)cc12` [Example 187, 8-Hydroxy-6-morpholinoquinazolin-4(3H)-one], under setting [1], the IC50 came out at 710 nM.

Regarding `Cc1ccc(C(=O)c2cc(O)c3nc[nH]c(=O)c3c2)s1` [Example 94, 8-Hydroxy-6-(5-methylthiophene-2-carbonyl)quinazolin-4(3H)-one], the IC50 under setting [1] stood at 90 nM.

Consider `O=c1[nH]cnc2c(O)cc(-c3ccc(Br)nc3)cc12` [Example 144, 6-(6-Bromo-pyridin-3-yl)-8-hydroxy-3H-quinazolin-4-one], for which, under setting [1], the IC50 came to 50 nM.

Consider `O=c1[nH]cnc2c(O)cc(-c3ccc(F)cc3)c(-c3ccnc(N4CCOCC4)c3)c12` [Example 59, 6-(4-Fluorophenyl)-8-hydroxy-5-(2-morpholinopyridin-4-yl)quinazolin-4(3H)-one], for which the IC50 under setting [1] amounted to 40 nM.

Consider `O=c1[nH]cnc2c(O)cc(-c3ccccc3COCCC3CCN(CC(F)(F)F)CC3)c(Cl)c12` [Example 120, 5-Chloro-8-hydroxy-6-(2-((2-(1-(2,2,2-trifluoroethyl)piperidin-4-yl)ethoxy)methyl)phenyl)quinazolin-4(3H)-one 2,2,2-trifluoroacetate], for which, under setting [1], the concentration for half-maximal inhibition (IC50) was 90 nM.

Regarding `CN(C)CCc1ccccc1-c1cc(O)c2nc[nH]c(=O)c2c1` [Example 234, 6-(2-(2-(Dimethylamino)ethyl)phenyl)-8-hydroxyquinazolin-4(3H)-one], the IC50 under setting [1] turned out to be 980 nM.

As for `COCc1cc(COC(=O)N2CCN(C(C)C)CC2)ccc1-c1cc(O)c2nc[nH]c(=O)c2c1` [Example 109, 4-(8-Hydroxy-4-oxo-3,4-dihydroquinazolin-6-yl)-3-(methoxymethyl)benzyl 4-isopropylpiperazine-1-carboxylate bis(2,2,2-trifluoroacetate)], under setting [1], the IC50 is 20 nM.

As for `Cc1cnccc1-c1cc(O)c2nc[nH]c(=O)c2c1` [Example 219, 8-Hydroxy-6-(3-methylpyridin-4-yl)quinazolin-4(3H)-one], under setting [1], the IC50 was found to be 20 nM.

On to `CN(C)c1ccccc1-c1cc(O)c2nc[nH]c(=O)c2c1` [Example 209, 6-(2-(Dimethylamino)phenyl)-8-hydroxyquinazolin-4(3H)-one], for which the half-inhibitory concentration (IC50) under setting [1] stood at 370 nM.

Regarding `COc1ccc(-c2cc(O)c3nc[nH]c(=O)c3c2)cn1` [Example 163, 8-Hydroxy-6-(6-methoxypyridin-3-yl)quinazolin-4(3H)-one], the IC50 under setting [1] is 40 nM.

Regarding `O=c1[nH]cnc2c(O)cc(-c3ccccc3C(F)(F)F)cc12` [Example 221, 8-Hydroxy-6-(2-(trifluoromethyl)phenyl)quinazolin-4(3H)-one], under setting [1], the IC50 turned out to be 30 nM.
